This is an account of results in PubChem BioAssay (NCI).

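96-well plates; 48 h exposure; 5 concentrations. Endpoints by linear interpolation between flanking doses. Not reached: highest tested concentration assigned. TGI is the concentration that stops growth completely.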

Common to all, as to assay: NCI-60 cell line screen, 48 h
Experiment [1] concerns TK-10 renal.
The subject of experiment [2] is NCI-H460 lung.
In experiment [3] the test system is MCF7 breast.
For experiment [4], the system named is HT29 colon.
Experiment [5] concerns MDA-MB-435.
Experiment [6] deals with SF-539 CNS.
The test system of experiment [7] is UACC-62 melanoma.
The subject of experiment [8] is SNB-19 CNS.
Experiment [9] deals with IGROV1 ovarian.
The test system of experiment [10] is HS 578T breast.
For experiment [11], the system named is EKVX NSCLC.
Experiment [12] concerns SK-MEL-28 melanoma.
The test system of experiment [13] is KM12 colon.
Experiment [14] deals with OVCAR-5 ovarian.
Experiment [15] relates to OVCAR-3 ovarian.
Experiment [16] deals with HCT-116 colon.
Experiment [17] relates to HCC-2998 colon.
Experiment [18] deals with HOP-92 NSCLC.

Take `COC(=O)/C=C(\S/C(=C(/c1ccc(OC)cc1)n1cc(C(=O)OC)c(C(=O)OC)n1)c1ccc(OC)cc1)C(=O)OC`: the TGI is 19 µM in experiment [1]; > 100 µM in experiment [2]; > 100 µM in experiment [3]; 30.7 µM in [4]; 34.2 µM in [5]; > 100 µM in experiment [6]. Further, the TGI in experiment [7] was > 100 µM; in [8], > 100 µM; in [9], 22.5 µM; in experiment [10], > 100 µM; in experiment [11], 49.5 µM; in experiment [12], > 100 µM. Besides, the TGI in [13] is > 100 µM; in experiment [14], 69.7 µM; in experiment [15], 13.2 µM; in [16], 31.3 µM.
Turning to `Cc1ccccc1NC(=O)/C(C#N)=N\Nc1nc[nH]c1C(N)=O`, the TGI in [17], in [1], in experiment [2], in experiment [3], in experiment [4] and in experiment [5] was > 100 µM throughout. The TGI in [7], in [8], in experiment [9], in [10], in experiment [11] and in experiment [12] was > 100 µM throughout. Further, the TGI in experiment [13], in experiment [14], in experiment [15] and in [16] was > 100 µM in each case.
On to `CN1CCC/C1=C1\C(=O)c2cccn2C1=O`, for which the TGI in [17], in [1], in experiment [2], in experiment [3], in experiment [4] and in [5] was > 100 µM each time. The TGI in experiment [7], in [8], in experiment [9], in experiment [10], in [11] and in experiment [12] was > 100 µM in each case. Further, the TGI in [13], in [14], in experiment [15] and in experiment [16] was > 100 µM throughout.
In the case of `COc1ccc(-c2cc(-c3ccco3)c(C#N)c(=S)n2C2OC(CO)C(O)C(O)C2O)cc1` (stereo not given), the TGI in [17], in [1], in experiment [2], in experiment [3], in [4] and in experiment [5] was > 100 µM each time. The TGI in [6], in [8], in experiment [9], in experiment [10], in experiment [11] and in [12] was > 100 µM in each case. Also, the TGI in experiment [13], in experiment [14], in experiment [15] and in [16] was > 100 µM in each case.
Regarding `CCn1c(SCC(=O)NNC(=S)Nc2ccc(F)cc2)nc2ccccc2c1=O`, the TGI in [17], in [1], in experiment [3], in experiment [4], in experiment [5] and in experiment [6] was > 100 µM in each case. The TGI in experiment [7], in experiment [8], in [9], in experiment [10], in experiment [11] and in experiment [12] was > 100 µM in each case. The TGI in experiment [13], in experiment [14], in experiment [15] and in [16] was > 100 µM in each case.
Take `O=C(CCCN1CC=C(n2c(=O)[nH]c3ccccc32)CC1)c1cccs1`: the TGI in [17], in [1], in [2], in [3], in experiment [4] and in experiment [5] was > 100 µM throughout. For the same compound, the TGI in experiment [6], in experiment [7], in [8], in [9], in experiment [11] and in [18] was > 100 µM throughout. Besides, the TGI in experiment [12], in experiment [13], in experiment [14], in [15] and in [16] was > 100 µM each time.
On to `N#CC1=C(N2CCOCC2)CCC1`, for which the TGI in [17], in experiment [1], in [3], in [4], in experiment [5] and in experiment [6] was > 100 µM each time. Besides, the TGI in experiment [7], in experiment [8], in experiment [9], in experiment [10], in experiment [11] and in [13] was > 100 µM in each case. Further, the TGI in [14], in [15] and in experiment [16] was > 100 µM throughout.
`O=C(/C=C/c1cccs1)c1ccc(C(=O)/C=C/c2cccs2)cc1`: the TGI in experiment [17], in experiment [1], in experiment [2], in experiment [4], in experiment [5] and in [6] was > 100 µM each time. The TGI in [7], in experiment [8], in experiment [9], in [10], in experiment [11] and in [18] was > 100 µM throughout. For the same compound, the TGI in [12], in experiment [13], in experiment [14] and in [15] was > 100 µM in each case.
As to `O=C(/C=C\c1ccccc1-c1ccccc1)c1ccccc1`, the TGI in [17], in experiment [1], in experiment [2], in experiment [4], in experiment [5] and in [6] was > 100 µM in each case. The TGI in [7], in experiment [9], in experiment [10], in experiment [11], in experiment [18] and in experiment [13] was > 100 µM throughout. The TGI in experiment [14], in [15] and in experiment [16] was > 100 µM in each case.
In the case of `CN(C)CCN1C(=O)c2ccccc2C1(O)c1ccc(Cl)cc1` (stereo not given), the TGI in experiment [17], in experiment [1], in experiment [2], in [3], in experiment [4] and in [5] was > 100 µM in each case. Moreover, the TGI in experiment [7], in experiment [8], in experiment [9], in experiment [10], in experiment [11] and in experiment [12] was > 100 µM in each case. Further, the TGI in experiment [13], in experiment [14], in experiment [15] and in experiment [16] was > 100 µM throughout.
For `O=C1c2cccnc2C(=O)c2c1nc1ccccc1c2-c1cncc(-c2c3c(nc4ccccc24)C(=O)c2cccnc2C3=O)c1`, the TGI in [17] turned out to be 1.47 µM; in [1], 2.86 µM; in experiment [2], 0.516 µM; in [4], 1.28 µM; in experiment [5] it was 0.9 µM; in experiment [7] it was 1.09 µM. The TGI in [8] was determined as 1.57 µM; in experiment [9] it was 0.286 µM; in [10], 2.27 µM; in experiment [11] it was 1.73 µM; in experiment [18], 5.93 µM; in experiment [12], 1.57 µM. For the same compound, the TGI in experiment [13] is 2 µM; in experiment [14] it was 5.9 µM; in [15] it was 3.22 µM; in [16], 0.352 µM.
As to `Cc1ccc(S(=O)(=O)n2cnc(CC(NC(=O)C3CCC(=O)N3C(=O)OCc3ccccc3)C(=O)N3CCCC3C(=O)NN)c2)cc1` (stereo not given), the TGI in experiment [17], in experiment [1], in [2], in experiment [3], in [4] and in experiment [8] was > 100 µM in each case. Further, the TGI in [9], in [10], in experiment [11], in experiment [18], in [12] and in [13] was > 100 µM in each case. Moreover, the TGI in experiment [14] and in experiment [16] was > 100 µM throughout.
Turning to `CCOC(=O)c1c(NC(=O)c2ccc(OC)cc2)sc2c1CCCC2`, the TGI in [1], in [2], in experiment [3], in experiment [4], in [5] and in [6] was > 100 µM throughout. The TGI in experiment [7], in experiment [8], in experiment [9], in experiment [10], in experiment [11] and in experiment [12] was > 100 µM each time. Moreover, the TGI in experiment [13], in experiment [14], in experiment [15] and in experiment [16] was > 100 µM each time.
